Data taken from ChEMBL document CHEMBL4627384, “l-Thyroxin and the Nonclassical Thyroid Hormone TETRAC Are Potent Activators of PPARγ” (J Med Chem, 2020).
Activity calls are given as the source filed them. No cut-off for these calls is given here.

Legend:
[1] = target: T1, Peroxisome proliferator-activated receptor gamma (Homo sapiens) (UniProt P37231); assay: Agonist activity at recombinant human pFA-CMV fused PPARgamma LBD expressed in HEK293T cells transfected with pFR-luciferase plasmid and pRL-SV40 plasmid at 15 uM incubated for 14 to 16 hrs in presence of PPARgamma antagonist GW9662 by dual glo luciferase reporter gene assay; type: cell-based; settings: HEK-293T
T1 sequence (whole entry): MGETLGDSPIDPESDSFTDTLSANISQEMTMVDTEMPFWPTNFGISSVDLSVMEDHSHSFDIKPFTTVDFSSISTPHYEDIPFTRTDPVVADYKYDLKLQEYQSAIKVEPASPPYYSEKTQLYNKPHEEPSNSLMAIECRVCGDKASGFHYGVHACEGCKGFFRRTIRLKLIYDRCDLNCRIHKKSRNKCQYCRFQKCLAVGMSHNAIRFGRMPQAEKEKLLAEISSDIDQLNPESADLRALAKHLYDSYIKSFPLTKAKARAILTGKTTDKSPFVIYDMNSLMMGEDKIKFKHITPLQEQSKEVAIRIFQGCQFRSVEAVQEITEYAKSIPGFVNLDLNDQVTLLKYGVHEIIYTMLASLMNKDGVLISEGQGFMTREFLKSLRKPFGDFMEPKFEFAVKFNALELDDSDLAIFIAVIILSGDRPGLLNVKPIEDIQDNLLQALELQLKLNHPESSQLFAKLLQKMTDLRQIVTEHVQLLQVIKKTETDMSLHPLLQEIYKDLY

[2] = target: Luciferin 4-monooxygenase (Photinus pyralis) (UniProt P08659); assay: Activation of firefly luciferase expressed in HEK293T cells at 15 uM incubated for 14 to 16 hrs by reporter gene assay; type: cell-based; settings: HEK-293T
[3] = target: T1, Peroxisome proliferator-activated receptor gamma (Homo sapiens); assay: Agonist activity at PPARgamma in human HepG2 cells with THRA knockdown assessed as induction of CD36 expression at 30 uM incubated for 8 hrs in by Western blot analysis; type: cell-based
[4] = tested on: HEK-293T; assay: Activation of renilla luciferase expressed in HEK293T cells at 15 uM incubated for 14 to 16 hrs by reporter gene assay; type: cell-based; settings: Renilla reniformis
[5] = Drug metabolism in human HepG2 cells assessed as 2-(4-(4-hydroxy-3,5-diiodophenoxy)-3,5-diiodophenyl)acetic acid formation at 10 uM incubated for 24 hrs by LC-MS analysis; type: ADME, cell-based; settings: hepg2, 24 h
[6] = organism: Homo sapiens; assay: Agonist activity at PPARgamma LBD (unknown origin)/GFP-tagged RXRalpha mutant (unknown origin) assessed as biotin-labeled CBP recruitment to […]:RXRalpha mutant fusion protein heterodimer incubated for 2 hrs by HT-FRET assay
[7] = tested on: HEK-293T; assay: Activation of renilla luciferase expressed in HEK293T cells at 0.1 uM incubated for 14 to 16 hrs by reporter gene assay; type: cell-based; settings: Renilla reniformis
[8] = target: T2, Hepatocyte nuclear factor 4-alpha (Homo sapiens) (UniProt P41235); assay: Agonist activity at recombinant human pFA-CMV-fused HNF4alpha LBD expressed in HEK293T cells transfected with pFR-luciferase plasmid and pRL-SV40 plasmid at 1 uM incubated for 14 to 16 hrs by dual glo luciferase reporter gene assay; type: cell-based; settings: HEK-293T
T2 sequence (whole entry): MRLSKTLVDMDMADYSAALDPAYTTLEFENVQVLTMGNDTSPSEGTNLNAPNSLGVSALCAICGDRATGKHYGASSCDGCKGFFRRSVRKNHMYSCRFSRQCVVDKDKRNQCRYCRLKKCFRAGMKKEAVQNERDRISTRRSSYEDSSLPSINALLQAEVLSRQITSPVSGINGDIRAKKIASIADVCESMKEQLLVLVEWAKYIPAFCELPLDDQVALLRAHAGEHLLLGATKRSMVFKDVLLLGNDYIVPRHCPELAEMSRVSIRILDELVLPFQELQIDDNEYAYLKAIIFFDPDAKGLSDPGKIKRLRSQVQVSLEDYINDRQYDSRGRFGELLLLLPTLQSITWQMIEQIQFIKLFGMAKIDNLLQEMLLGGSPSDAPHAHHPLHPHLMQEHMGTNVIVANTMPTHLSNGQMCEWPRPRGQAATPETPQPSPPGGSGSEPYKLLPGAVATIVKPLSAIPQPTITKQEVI

[9] = target: T3, Thyroid hormone receptor alpha (Homo sapiens, UniProt P10827); assay: Agonist activity at THRalpha (unknown origin) incubated for 14 to 16 hrs by dual glo luciferase reporter gene assay
T3 sequence (P10827 whole entry): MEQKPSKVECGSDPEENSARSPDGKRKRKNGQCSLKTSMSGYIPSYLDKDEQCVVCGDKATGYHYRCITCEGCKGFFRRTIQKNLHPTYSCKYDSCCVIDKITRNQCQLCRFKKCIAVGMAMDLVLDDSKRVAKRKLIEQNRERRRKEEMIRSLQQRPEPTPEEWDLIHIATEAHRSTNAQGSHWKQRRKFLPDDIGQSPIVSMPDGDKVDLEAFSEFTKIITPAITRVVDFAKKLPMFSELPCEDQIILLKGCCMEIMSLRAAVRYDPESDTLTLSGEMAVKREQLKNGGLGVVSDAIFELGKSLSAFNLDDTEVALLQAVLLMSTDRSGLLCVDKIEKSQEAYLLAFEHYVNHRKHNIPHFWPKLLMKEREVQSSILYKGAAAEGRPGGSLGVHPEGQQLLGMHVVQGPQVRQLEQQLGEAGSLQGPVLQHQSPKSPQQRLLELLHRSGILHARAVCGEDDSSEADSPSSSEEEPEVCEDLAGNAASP

[10] = target: T2, Hepatocyte nuclear factor 4-alpha (Homo sapiens); assay: Agonist activity at recombinant human pFA-CMV-fused HNF4alpha LBD expressed in HEK293T cells transfected with pFR-luciferase plasmid and pRL-SV40 plasmid at 0.001 to 0.3 uM incubated for 14 to 16 hrs by dual glo luciferase reporter gene assay; type: cell-based; settings: HEK-293T
[11] = target: T1, Peroxisome proliferator-activated receptor gamma (Homo sapiens); assay: Agonist activity at N-terminal GFP-fused PPARgamma LBD (unknown origin) assessed as biotin-labeled SRC-1 recruitment incubated for 2 hrs by HT-FRET assay
[12] = target: T4, Peroxisome proliferator-activated receptor gamma (Mus musculus) (UniProt P37238); assay: Agonist activity at PPARgamma in mouse 3T3L1 assessed as induction of adipocytes differentiation by Oil Red O staining based assay; type: cell-based; settings: 3T3-L1
T4 sequence (whole entry): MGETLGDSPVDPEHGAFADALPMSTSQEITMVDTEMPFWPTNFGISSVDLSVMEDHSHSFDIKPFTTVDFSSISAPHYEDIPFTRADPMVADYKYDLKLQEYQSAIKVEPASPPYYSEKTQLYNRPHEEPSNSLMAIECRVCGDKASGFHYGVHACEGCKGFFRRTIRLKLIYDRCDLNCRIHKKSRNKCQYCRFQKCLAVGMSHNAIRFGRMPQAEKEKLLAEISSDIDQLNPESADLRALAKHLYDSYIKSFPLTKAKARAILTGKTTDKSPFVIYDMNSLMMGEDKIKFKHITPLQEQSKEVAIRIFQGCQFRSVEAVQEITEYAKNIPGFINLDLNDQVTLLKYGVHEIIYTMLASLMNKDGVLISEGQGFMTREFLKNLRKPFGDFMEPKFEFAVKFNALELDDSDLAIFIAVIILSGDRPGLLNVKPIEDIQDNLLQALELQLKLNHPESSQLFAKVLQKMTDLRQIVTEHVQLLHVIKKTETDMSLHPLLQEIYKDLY

Sequence of Luciferin 4-monooxygenase (Photinus pyralis) (P08659 whole entry): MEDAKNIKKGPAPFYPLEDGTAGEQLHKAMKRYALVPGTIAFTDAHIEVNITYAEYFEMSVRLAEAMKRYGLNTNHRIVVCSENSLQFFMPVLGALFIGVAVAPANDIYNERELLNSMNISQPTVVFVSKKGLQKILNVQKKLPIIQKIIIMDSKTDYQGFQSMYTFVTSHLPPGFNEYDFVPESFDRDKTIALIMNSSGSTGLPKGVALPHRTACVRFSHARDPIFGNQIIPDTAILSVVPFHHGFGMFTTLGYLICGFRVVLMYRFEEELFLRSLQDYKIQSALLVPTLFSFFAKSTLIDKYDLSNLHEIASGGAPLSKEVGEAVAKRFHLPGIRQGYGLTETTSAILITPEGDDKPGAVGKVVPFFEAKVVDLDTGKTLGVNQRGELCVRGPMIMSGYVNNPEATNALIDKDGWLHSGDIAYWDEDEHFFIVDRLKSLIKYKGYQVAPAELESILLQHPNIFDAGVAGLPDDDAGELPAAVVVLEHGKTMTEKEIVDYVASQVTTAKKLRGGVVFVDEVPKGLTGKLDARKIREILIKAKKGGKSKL

Row | Structure (SMILES) | Activity [1] | Activity [2] | Activity [3] | Activity [4] | Drug metabolism [5] [ng] | Activity [6] | Activity [7] | Activity [8] | EC50 [9] [µM] | Activity [10] | Activity [11] | Activity [12]
1 | N[C@@H](Cc1cc(I)c(Oc2cc(I)c(O)c(I)c2)c(I)c1)C(=O)O [LEVOTHYROXINE] | inactive | inactive | Active | inactive | 44 |  |  |  |  |  |  | 
2 | O=C(O)Cc1cc(I)c(Oc2cc(I)c(O)c(I)c2)c(I)c1 [TETRAC] |  |  |  |  |  | Active | inactive | Active | 0.02 | inactive | Active | Dose-dependent effect
